Peptide text beside a SMILES is read from it.
Experiments:
[1] = Inhibition of specific brain peptidase
[2] = Ionization constant was determined; assay type: physicochemical
[3] = Inhibition of Cl- dependent binding sites of AP4 receptor labeled with [3H]- glutamic acid

Compound	IC50 [1]	pKa [2]	Ki [3]
N[C@@H](Cn1oc(=O)[nH]c1=O)C(=O)O [QUISQUALATE]	480 nM	4.2	–
CC(=O)NC(CC(=O)O)C(=O)NC(CCC(=O)O)C(=O)O (stereo not drawn) (Ac-Asp-Glu-OH; configuration not given here)	–	–	420 nM
NC(CN1CC(=O)NC1=O)C(=O)O (centres undefined)	–	8.2	–
